In paper PMC6915728 (Nature Communications, 2019):
Read-outs that look alike come from different tables or passages of the source.

Columns and labels:
E. coli BW25113 ΔmlaD = assay: MIC, serial broth dilution, mlaD knockout strain vs wild type; format: cell-based, Escherichia coli
Method: What could be the mechanism behind the antagonistic action of this pathway on membrane- versus intracellular-targeting AMPs? Since MlaD is part of a protein complex, it may lead to a loss-of-function effect upon overexpression[41],[42]. To test this, we asked whether overexpression and deletion of mlaD cause similar changes in susceptibility to a representative set of membrane- and intracellular-targeting AMPs.
Minimum inhibitory concentrations (MIC) were determined with a standard serial broth dilution technique with a minor modification. Specifically, instead of a two-fold dilution series, smaller AMP concentration steps were used (typically 1.2-fold) for two reasons. […] Second, gene overexpressions caused typically only small changes in the MICs of AMPs and therefore higher resolution was required. The protocol was as follows. From a stock solution of an AMP, 12-steps serial dilution was prepared in fresh MS medium in 96-well microtiter plates. Each AMP was represented in 11 different concentrations (3 wells per AMP concentration per strain). Three wells contained only medium to check the growth in the absence of AMP. After overnight growth in MS medium supplemented with chloramphenicol, bacterial strains were diluted 20-fold into fresh MS medium and grown until the cell density reached OD600 ~1. Cells were induced by 100 µM of IPTG and incubated for 1 h at 30 °C with continuous shaking at 300 rpm. Following incubation, approximately half-million cells were inoculated into the wells of the 96-well microtiter plate with a 96‐pin replicator. We used three independent replicates for each strain and the corresponding control. Two rows in the 96-well plate contained only MS medium in order to obtain the background OD value of the medium. Plates were incubated at 30 °C with continuous shaking at 300 rpm. After 20–24 h of incubation, OD600 values were measured in a microplate reader (Biotek Synergy 2).
A mlaD knockout strain of E. coli BW25113 carrying a kanamycin resistance cassette in the position of the gene was selected from the KEIO collection. The resistance marker was removed using plasmid-borne (pFT-A) expression of FLP recombinase leading to excision of the kanamycin resistance cassette. Cassette excision was verified by a polymerase chain reaction using the primers mlaD_del_ver_Fw (5′- […]) and mlaD_del_ver_Rev (5′- […]).
Supplementary Figure 13. […] The bacterial susceptibility of the mutant to AMPs was tested by MIC determination. Growth is shown relative to growth in the absence of the corresponding AMP. The blue line represents the mlaD knockout strain and the orange line represents the control strain (wild-type E. coli BW25113). Error bars indicate the standard errors based on three biological replicates. Source data are provided in the Source Data file.

bacterial membrane = details: literature mining; ref superscript numbers in the cell, listed in Supplementary Data 7 sheet References; cited from earlier work
Description: Supplement 41467_2019_13618_MOESM10_ESM.xlsx, sheet "AMP details" | column: Pore formation

[1] = test system: E. coli K12 BW25113 carrying the pooled ASKA overexpression plasmid library (~4400 ORFs); assay: Chemical-genetic profiling: pooled competitive growth of the ASKA gene-overexpression library with and without AMP, deep sequencing readout; format: cell-based, Escherichia coli
Description: We generated chemical-genetic interaction profiles for a diverse set of AMPs (Table 1) by screening them against a comprehensive library of gene overexpressions in E. coli[21]. Increasing gene dosage is a widely applied approach to reveal the targets of small-molecule antibiotics[22],[23]. It also informs on the ‘latent resistome’, that is, the collection of genes where a change from native expression level enhances resistance to a particular drug[24]. We applied a sensitive competition assay by monitoring growth of a pooled plasmid library, overexpressing all the E. coli ORFs (Fig. 1a), as we reported earlier. Specifically, E. coli cells carrying the pooled plasmid collection were grown in the presence or absence of one of the 15 AMPs tested, at a sub-inhibitory concentration that increased the doubling time of the whole population by 2-fold. Following 12 generations of growth, the plasmid pool was isolated from each selection and the relative abundance of each plasmid was determined by a deep sequencing readout (see Methods).
We carried out chemical-genetic profiling to determine the impact of the overexpression of each E. coli ORF on bacterial susceptibility to each of the 15 different AMPs. To this end, we used the complete set of E. coli K-12 Open Reading Frame Archive (ASKA) plasmid library (GFP minus) where each E. coli ORF is cloned into a high copy number expression plasmid (pCA24N-ORFGFP(-)). Prior to screening, the ASKA library was grown in the original host strain E. coli K-12 AG1 in 96-well plates (growth conditions: 37 °C, 280 rpm, LB medium). An equal aliquot of each member of the ASKA library (each well of the 96-well plates) was pooled together and the plasmid DNA (pCA24N-ORF-GFP(-)) was isolated and transformed into E. coli K12 BW25113 strain[51]. To obtain a negative control strain not having any overexpressed gene, the plasmid without a cloned ORF (pCA24N-noORF) was also transformed into the same E. coli strain. Then, on the pooled collection, we applied a previously reported competitive growth assay. Specifically, the pooled overexpression library and the control strain were grown in parallel in MS medium supplemented with 20 µg per ml chloramphenicol and the overexpression was induced by 100 µM isopropyl-ß-D-thiogalactopyranoside (IPTG). After 1 h induction, ~5 × 10^5 bacterial cells from the library were inoculated into each well of a 96-well microtiter plate containing a concentration gradient of an AMP in the MS medium supplemented with 20 µg per ml chloramphenicol and 100 µM IPTG. At the same time, both the library and the control strain with the empty plasmid were grown in the absence of any AMPs. We took special care to grow both of these samples in the exact same conditions as the samples in the presence of AMPs. Bacterial growth was monitored in a microplate reader (Biotek Synergy 2) for 24 h. At the end of the exponential growth phase, we selected those wells in which the doubling time of the cell population was increased by 2-fold. Then, from these wells, cells were split into four equal proportion and each was transferred into 20 mL of MS medium supplemented with the corresponding AMP in four different concentrations in the range that slowed down growth by two-fold in the microtitre plate. […] The rationale for this 2-step process was to maintain competition in exponential phase for 12 generations of growth, efficiently control the growth rate in a reproducible manner and obtain the plasmid pool with standard DNA isolation protocol (innuPREP plasmid mini Kit, Analytik Jena AG) in a yield that is enough for the downstream analysis. The cultures were vigorously shaken along the entire protocol to make sure that the cultures are completely homogeneous and therefore biasing interactions between clones (such as trans-resistance) was minimized. […]

[2] = test system: E. coli gene overexpression; details: cited from earlier work
Description: Supplement 41467_2019_13618_MOESM1_ESM.docx, table 1: Supplementary Table 1. Collected examples of E. coli gene overexpression from the literature as a confirmation of our chemical-genetic screen results. | column: Overexpression phenotype

[3] = mlaD deletion strain relative to control (E. coli BW25113), 3 replicates each, from optical density values of serial dilution plates, AMP in µg ml-1
[4] = mlaD deletion strain vs control E. coli BW25113, average of 3 replicates
[5] = gene marA overexpressed, ref 3 (Warner & Levy 2010)
[6] = gene ompT, whether the literature phenotype was captured by the overexpression screen
[7] = gene ompT overexpressed, ref 4 (Stumpe et al. 1998)
[8] = gene ptrB, whether the literature phenotype was captured by the overexpression screen (9 out of 13 captured)
[9] = gene ptrB overexpressed, ref 2 (Mattiuzzo et al. 2014)

GIGKFLKKAKKFGKAFVKILKK [PEX, Pexiganan, synthetic Magainin derivative; disrupts cell membrane; cluster C2]
Average relative change in MIC (E. coli BW25113 ΔmlaD; [3]): 1.58 | Pore formation (whether AMP makes pores in the bacterial membrane) (bacterial membrane): Yes13

GLRKRLRKFRNKIKEKLKKIGQKIQGFVPKLAPRTDY [CAP18, antimicrobial peptide, source rabbit; disrupts cell membrane; cluster C3]
Overexpression phenotype, Chemical-genetic profile ([1]; gene waaY, whether the literature phenotype was captured by the overexpression screen): Confirmed | Average relative change in MIC (E. coli BW25113 ΔmlaD; [3]): 2.25 | Overexpression phenotype, Literature ([2]; gene waaY overexpressed, ref 10 (Lázár et al. 2018)): Sensitivity^10 | Pore formation (whether AMP makes pores in the bacterial membrane) (bacterial membrane): Yes35

ILPWKWPWWPWRR [IND, Indolicidin, antimicrobial peptide from bovine neutrophils; cluster C3]
Average relative change in MIC (E. coli BW25113 ΔmlaD; [4]): 0.71 | Pore formation (whether AMP makes pores in the bacterial membrane) (bacterial membrane): Yes39

KTKKKFLKKT [PXB, Polymyxin B, from Bacillus polymyxa, purchased from Sigma-Aldrich; disrupts cell membrane; cluster C1]
Overexpression phenotype, Chemical-genetic profile ([1]; gene eptA, whether the literature phenotype was captured by the overexpression screen): Confirmed | Overexpression phenotype, Chemical-genetic profile ([1]; gene marA, whether the literature phenotype was captured by the overexpression screen): Confirmed | Overexpression phenotype, Literature ([2]; gene arnT overexpressed, ref 5 (Trent et al. 2001)): Resistance^5 | Overexpression phenotype, Literature ([2]; gene eptA overexpressed, ref 7 (Olaitan et al. 2014)): Resistance^7 | Overexpression phenotype, Literature [2, 5]: Resistance^3 | Overexpression phenotype, Literature ([2]; gene pmrD overexpressed, ref 8 (Roland et al. 1994)): Resistance^8 | Pore formation (whether AMP makes pores in the bacterial membrane) (bacterial membrane): Yes2

LLGDFFRKSKEKIGKEFKRIVQRIKDFLRNLVPRTES [LL37, LL-37 human cathelicidin, human host-defense peptide; disrupts cell membrane; cluster C2]
Overexpression phenotype, Chemical-genetic profile [1, 6]: Confirmed | Average relative change in MIC (E. coli BW25113 ΔmlaD; [3]): 2.25 | Overexpression phenotype, Literature [2, 5]: Resistance^3 | Overexpression phenotype, Literature [2, 7]: Resistance^4 | Pore formation (whether AMP makes pores in the bacterial membrane) (bacterial membrane): Yes22

RFRPPIRRPPIRPPFYPPFRPPIRPPIFPPIRPPFRPPLGPFP [BAC5, Bactenecin 5, antimicrobial peptide from bovine neutrophils; cluster C4]
Overexpression phenotype, Chemical-genetic profile [1, 8]: Confirmed | Chemical-genetic score ([1]; overexpressed gene mlaD, read numbers in presence vs absence of AMP, sub-inhibitory dose doubling the doubling time, 12 generations, average of biological replicates): -2.101 log2 fold change | Average relative change in MIC (E. coli BW25113 ΔmlaD; [4]): 0.67 | Overexpression phenotype, Literature [2, 9]: Resistance^2

RRRPRPPYLPRPRPPPFFPPRLPPRIPPGFPPRFPPRFP [PR39, PR-39, cathelicidin, source pig; cluster C4]
Effect of folA overexpression on susceptibility ([1]; gene folA (dihydrofolate reductase) overexpressed): resistance | Overexpression phenotype, Chemical-genetic profile [1, 8]: Confirmed | Overexpression phenotype, Chemical-genetic profile ([1]; gene sbmA, whether the literature phenotype was captured by the overexpression screen): Confirmed | Overexpression phenotype, Literature [2, 9]: Resistance^2 | Overexpression phenotype, Literature ([2]; gene sbmA overexpressed, ref 9 (Pranting et al. 2008)): Sensitivity^9 | Pore formation (whether AMP makes pores in the bacterial membrane) (bacterial membrane): No9

RWCFRVCYRGICYRKCR [TPII, Tachyplesin II, antimicrobial peptide from Japanese horseshoe crab; disrupts cell membrane; cluster C1]
Average relative change in MIC (E. coli BW25113 ΔmlaD; [3]): 1.35 | Pore formation (whether AMP makes pores in the bacterial membrane) (bacterial membrane): Yes1

TSSPPAAVVVRRRRRRRRRRRRRRRRRRR [PROA, Protamine, source herring, purchased from Sigma-Aldrich; cluster C3]
Overexpression phenotype, Chemical-genetic profile ([1]; gene nlpE, whether the literature phenotype was captured by the overexpression screen): Confirmed | Overexpression phenotype, Chemical-genetic profile [1, 6]: Confirmed | Average relative change in MIC (E. coli BW25113 ΔmlaD; [4]): 0.43 | Overexpression phenotype, Literature ([2]; gene nlpE overexpressed, ref 6 (Griffin 2013)): Resistance^6 | Overexpression phenotype, Literature [2, 7]: Resistance^4 | Pore formation (whether AMP makes pores in the bacterial membrane) (bacterial membrane): No43
